According to US9815796B2 (Merck Sharp & Dohme Corp., priority 2013, dated 2017):
Where two headings read alike, the source gives them in different places.

Target: Rhesus PDE2A3 (Macaca mulatta, UniProt B3VTJ2)
Experiment: PDE2 fluorescence polarization (IMAP FP) inhibition assay, rhesus enzyme
Type: biochemical, rhesus macaque
Procedure, shortened: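 IMAP FP (mP from parallel and perpendicular fluorescence against substrate-only control) was read ≥1 h after adding binding reagent. The preceding 60 min room-temperature reaction contained FAM-cAMP (50 nM) and cGMP (1 uM) in pH 7.2 Tris buffer with MgCl2 and DTT. Enzyme was supernatant of sonicated AD293 cells expressing rhesus PDE2A3; compounds were 3-fold titrated, DMSO 1% final.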

[1] = Rhesus PDE2, Lab A, read-out: Rhesus PDE2 Ki (nM) - Lab A
[2] = Rhesus PDE2, Lab B, read-out: Rhesus PDE2 Ki (nM) - Lab B

Sequence of Rhesus PDE2A3 (B3VTJ2 1-941): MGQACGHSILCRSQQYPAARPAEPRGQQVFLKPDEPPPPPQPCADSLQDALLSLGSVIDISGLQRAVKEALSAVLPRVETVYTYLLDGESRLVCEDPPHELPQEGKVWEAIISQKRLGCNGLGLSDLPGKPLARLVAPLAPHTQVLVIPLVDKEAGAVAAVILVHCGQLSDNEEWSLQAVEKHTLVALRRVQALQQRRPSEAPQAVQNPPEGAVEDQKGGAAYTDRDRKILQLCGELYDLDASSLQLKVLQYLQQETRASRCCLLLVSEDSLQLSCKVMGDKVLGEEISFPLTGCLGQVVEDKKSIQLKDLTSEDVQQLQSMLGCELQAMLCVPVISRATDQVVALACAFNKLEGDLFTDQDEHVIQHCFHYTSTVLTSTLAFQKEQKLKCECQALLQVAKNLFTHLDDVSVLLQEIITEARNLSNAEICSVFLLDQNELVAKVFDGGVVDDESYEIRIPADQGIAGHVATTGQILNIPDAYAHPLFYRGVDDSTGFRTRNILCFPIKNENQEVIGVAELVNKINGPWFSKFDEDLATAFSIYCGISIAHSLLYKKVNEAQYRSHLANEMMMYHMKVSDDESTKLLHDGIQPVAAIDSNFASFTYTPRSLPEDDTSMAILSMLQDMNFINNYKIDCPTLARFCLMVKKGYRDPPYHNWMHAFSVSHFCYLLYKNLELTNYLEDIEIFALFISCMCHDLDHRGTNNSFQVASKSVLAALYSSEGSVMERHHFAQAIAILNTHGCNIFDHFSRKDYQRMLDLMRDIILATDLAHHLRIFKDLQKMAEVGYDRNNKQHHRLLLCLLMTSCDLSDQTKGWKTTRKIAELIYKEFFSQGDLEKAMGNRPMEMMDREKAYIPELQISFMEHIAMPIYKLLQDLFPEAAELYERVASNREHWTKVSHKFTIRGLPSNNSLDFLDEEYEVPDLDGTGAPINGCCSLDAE

Row | Ki [1] [nM] | Ki [2] [nM] | inhibition at 1 µM (Rhesus PDE2, Lab A, at 1 uM, read-out: Rhesus PDE2 % inh. at 1 uM - Lab A) [%] | SMILES
1 | 345 | 490 |  | CC(NC(=O)c1cc(=O)[nH]c(-c2ccccc2)n1)c1ccc(C(F)(F)F)nc1 (stereo not drawn) [Example 356, 6-oxo-2-phenyl-N-{1-[6-(trifluoromethyl)pyridin-3-yl]ethyl}-1,6-dihydropyrimidine-4-carboxamide]
2 |  | ~11300 |  | COc1ccc([C@H](C)NC(=O)c2cc(=O)[nH]c(-c3ccccc3)n2)cc1 [Example 357, N-[(1S)-1-(4-methoxyphenyl)ethyl]-6-oxo-2-phenyl-1,6-dihydropyrimidine-4-carboxamide]
3 | 11600 |  |  | CC(NC(=O)c1cc(=O)[nH]c(-c2ccccc2)n1)c1ccncc1 (stereo not drawn) [Example 358, 6-oxo-2-phenyl-N-(1-pyridin-4-ylethyl)-1,6-dihydropyrimidine-4-carboxamide]
4 |  | ~24700 |  | C[C@H](NC(=O)c1cc(=O)[nH]c(-c2ccccc2)n1)c1cccc2ccccc12 [Example 362, N-[(1S)-1-naphthalen-1-ylethyl]-6-oxo-2-phenyl-1,6-dihydropyrimidine-4-carboxamide]
5 |  | 3950 |  | Cc1ccc([C@H](C)NC(=O)c2cc(=O)[nH]c(-c3ccccc3)n2)cc1 [Example 364, N-[(1S)-1-(4-methylphenyl)ethyl]-6-oxo-2-phenyl-1,6-dihydropyrimidine-4-carboxamide]
6 | 6850 |  |  | C[C@@H](NC(=O)c1cc(=O)[nH]c(-c2ccccc2)n1)c1ccc(CN(C)C)cc1 [Example 365, N-[(1R)-1-{4-[(dimethylamino)methyl]phenyl}ethyl]-6-oxo-2-phenyl-1,6-dihydropyrimidine-4-carboxamide]
7 | ~880 | 1100 |  | CC(NC(=O)c1cc(=O)[nH]c(-c2ccccc2)n1)c1cccc(Cl)c1 (stereo not drawn) [Example 368, N-[1-(3-chlorophenyl)ethyl]-6-oxo-2-phenyl-1,6-dihydropyrimidine-4-carboxamide]
8 |  | 8780 |  | CC(NC(=O)c1cc(=O)[nH]c(-c2ccccc2)n1)c1ccc(O)cc1 (stereo not drawn) [Example 369, N-[1-(4-hydroxyphenyl)ethyl]-6-oxo-2-phenyl-1,6-dihydropyrimidine-4-carboxamide]
9 | 334 | 533 |  | CC(NC(=O)c1cc(=O)[nH]c(-c2ccccc2)n1)c1ccc(C#N)cc1 (stereo not drawn) [Example 370, N-[1-(4-cyanophenyl)ethyl]-6-oxo-2-phenyl-1,6-dihydropyrimidine-4-carboxamide]
10 | 1000 | 2040 | 46 | CC(C)(C)c1ccc(CCNC(=O)c2cc(=O)[nH]c(-c3ccccc3)n2)cc1 [Example 375, N-[2-(4-tert-butylphenyl)ethyl]-6-oxo-2-phenyl-1,6-dihydropyrimidine-4-carboxamide]
11 | ~672 | 891 |  | CC(NC(=O)c1cc(=O)[nH]c(-c2ccccc2)n1)c1ccc2c(c1)OCO2 (stereo not drawn) [Example 376, N-[1-(1,3-benzodioxol-5-yl)ethyl]-6-oxo-2-phenyl-1,6-dihydropyrimidine-4-carboxamide]
12 |  | 353 |  | O=C(NC1(c2ccccc2OC(F)(F)F)CC1)c1cc(=O)[nH]c(-c2ccccc2)n1 [Example 380, 6-oxo-2-phenyl-N-{1-[2-(trifluoromethoxy)phenyl]cyclopropyl}-1,6-dihydropyrimidine-4-carboxamide]
13 |  | ~20400 |  | COc1ccc(C(NC(=O)c2cc(=O)[nH]c(-c3ccccc3)n2)c2ccc(C(F)(F)F)cc2)cc1 (stereo not drawn) [Example 381, N-{(4-methoxyphenyl)[4-(trifluoromethyl)phenyl]methyl}-6-oxo-2-phenyl-1,6-dihydropyrimidine-4-carboxamide]
14 |  | 3120 |  | CC(NC(=O)c1cc(=O)[nH]c(-c2ccccc2)n1)c1ccc(S(C)(=O)=O)cc1 (stereo not drawn) [Example 382, N-{1-[4-(methylsulfonyl)phenyl]ethyl}-6-oxo-2-phenyl-1,6-dihydropyrimidine-4-carboxamide]
15 |  | 319 |  | CC(NC(=O)c1cc(=O)[nH]c(-c2ccccc2)n1)c1ccc(-c2ccncc2)cc1 (stereo not drawn) [Example 384, 6-oxo-2-phenyl-N-[1-(4-pyridin-4-ylphenyl)ethyl]-1,6-dihydropyrimidine-4-carboxamide]
16 |  | 8980 |  | C[C@H](c1ccc(C(F)(F)F)cc1)N(C)C(=O)c1cc(=O)[nH]c(-c2ccccc2)n1 [Example 389, N-methyl-6-oxo-2-phenyl-N-{(1R)-1-[4-(trifluoromethyl)phenyl]ethyl}-1,6-dihydropyrimidine-4-carboxamide]
17 |  | 1700 |  | CC(C)(NC(=O)c1cc(=O)[nH]c(-c2ccccc2)n1)c1ccccc1 [Example 390, N-(1-methyl-1-phenylethyl)-6-oxo-2-phenyl-1,6-dihydropyrimidine-4-carboxamide]
18 |  | 2220 |  | C[C@H](NC(=O)c1cc(=O)[nH]c(-c2ccccc2)n1)c1ccc(Cl)cc1 [Example 394, N-[(1S)-1-(4-chlorophenyl)ethyl]-6-oxo-2-phenyl-1,6-dihydropyrimidine-4-carboxamide]

Row | Ki [1] [nM] | Ki [2] [nM] | inhibition at 1 µM (Rhesus PDE2, Lab A, at 1 uM, read-out: Rhesus PDE2 % inh. at 1 uM - Lab A) [%] | SMILES
19 |  | 2050 |  | CC(NC(=O)c1cc(=O)[nH]c(-c2ccccc2)n1)c1cccc(C(F)(F)F)c1 (stereo not drawn) [Example 395, 6-oxo-2-phenyl-N-{1-[3-(trifluoromethyl)phenyl]ethyl}-1,6-dihydropyrimidine-4-carboxamide]
20 |  | ~20300 |  | CC(NC(=O)c1cc(=O)[nH]c(-c2ccccc2)n1)c1cccc(-c2ccc(F)cc2)c1 (stereo not drawn) [Example 396, N-[1-(4′-fluorobiphenyl-3-yl)ethyl]-6-oxo-2-phenyl-1,6-dihydropyrimidine-4-carboxamide]
21 |  | 407 |  | O=C(NC(c1ccncc1)c1ccc(C(F)(F)F)cc1)c1cc(=O)[nH]c(-c2ccccc2)n1 (stereo not drawn) [Example 399, 6-oxo-2-phenyl-N-{pyridin-4-yl[4-(trifluoromethyl)phenyl]methyl}-1,6-dihydropyrimidine-4-carboxamide]
22 |  | 1070 |  | CC(C)(NC(=O)c1cc(=O)[nH]c(-c2ccccc2)n1)c1cccc(Br)c1 [Example 400, N-[1-(3-bromophenyl)-1-methylethyl]-6-oxo-2-phenyl-1,6-dihydropyrimidine-4-carboxamide]
23 |  | 1910 |  | COc1cc(C(F)(F)F)ccc1[C@H](C)NC(=O)c1cc(=O)[nH]c(-c2ccccc2)n1 [Example 403, N-{(1S)-1-[2-methoxy-4-(trifluoromethyl)phenyl]ethyl}-6-oxo-2-phenyl-1,6-dihydropyrimidine-4-carboxamide]
24 |  | 226 |  | COC(=O)C(NC(=O)c1cc(=O)[nH]c(-c2ccccc2)n1)c1ccc(C(F)(F)F)cc1 (stereo not drawn) [Example 406, methyl {[(6-oxo-2-phenyl-1,6-dihydropyrimidin-4-yl)carbonyl]amino}[4-(trifluoromethyl)phenyl]acetate]
25 |  | 3930 |  | O=C(c1cc(=O)[nH]c(-c2ccccc2)n1)N1Cc2cnc(-c3ccccc3)nc2C1 [Example 409, 2-phenyl-6-[(2-phenyl-5,7-dihydro-6H-pyrrolo[3,4-d]pyrimidin-6-yl)carbonyl]pyrimidin-4(3H)-one]
26 |  | 1960 |  | CC(NC(=O)c1cc(=O)[nH]c(-c2ccccc2)n1)c1cccc(-c2ccccc2)c1 (stereo not drawn) [Example 410, N-(1-biphenyl-3-ylethyl)-6-oxo-2-phenyl-1,6-dihydropyrimidine-4-carboxamide]
27 |  | 1460 |  | O=C(NC1(c2ccccc2OC(F)(F)F)CCC1)c1cc(=O)[nH]c(-c2ccccc2)n1 [Example 411, 6-oxo-2-phenyl-N-{1-[2-(trifluoromethoxy)phenyl]cyclobutyl}-1,6-dihydropyrimidine-4-carboxamide]
28 |  | 136 |  | CC(C)c1ccc(CNC(=O)c2cc(=O)[nH]c(-c3ccccc3)n2)cc1 [Example 414, N-[4-(1-methylethyl)benzyl]-6-oxo-2-phenyl-1,6-dihydropyrimidine-4-carboxamide]
29 |  | 1770 |  | CC(NC(=O)c1cc(=O)[nH]c(-c2ccccc2)n1)c1ccccc1-c1ccccc1 (stereo not drawn) [Example 416, N-(1-biphenyl-2-ylethyl)-6-oxo-2-phenyl-1,6-dihydropyrimidine-4-carboxamide]
30 |  | 1840 |  | CC(NC(=O)c1cc(=O)[nH]c(-c2ccccc2)n1)c1cccc(OC(F)(F)F)c1 (stereo not drawn) [Example 422, 6-oxo-2-phenyl-N-{1-[3-(trifluoromethoxy)phenyl]ethyl}-1,6-dihydropyrimidine-4-carboxamide]
31 |  | 42 |  | C[C@@H](NC(=O)c1cc(=O)[nH]c(-c2ncccn2)n1)c1cc(F)c(C(F)(F)F)cc1F [Example 429, N-{(1R)-1-[2,5-difluoro-4-(trifluoromethyl)phenyl]ethyl}-6-oxo-1,6-dihydro-2,2′-bipyrimidine-4-carboxamide]
32 |  | > 2970 |  | C[C@H](O)[C@@H](NC(=O)c1cc(=O)[nH]c(-c2ncccn2)n1)c1ccc(C(F)(F)F)cc1 [Example 430, N-{(1S,2)S-2-hydroxy-1-[4-(trifluoromethyl)phenyl]propyl}-6-oxo-1,6-dihydro-2,2′-bipyrimidine-4-carboxamide]
33 |  | ~2890 |  | CCOC(=O)c1ccc([C@H](C)NC(=O)c2cc(=O)[nH]c(-c3ncccn3)n2)cc1 [Example 431, ethyl 4-[(1S)-1-{[(6-oxo-1,6-dihydro-2,2′-bipyrimidin-4-yl)carbonyl]amino}ethyl]benzoate]
34 |  | > 2970 |  | CCOC(=O)c1ccc([C@@H](C)NC(=O)c2cc(=O)[nH]c(-c3ncccn3)n2)cc1 [Example 432, ethyl 4-[(1R)-1-{[(6-oxo-1,6-dihydro-2,2′-bipyrimidin-4-yl)carbonyl]amino}ethyl]benzoate]
35 |  | ~1430 |  | O=C(N[C@@H]1CCCc2cc(C(F)(F)F)ccc21)c1cc(=O)[nH]c(-c2ncccn2)n1 [Example 433, 6-oxo-N-[(1R)-6-(trifluoromethyl)-1,2,3,4-tetrahydronaphthalen-1-yl]-1,6-dihydro-2,2′-bipyrimidine-4-carboxamide]
36 |  | > 2970 |  | C[C@H](O)[C@@H](NC(=O)c1cc(=O)[nH]c(C2CC2)n1)c1ccc(C(F)(F)F)cc1 [Example 442, 2-cyclopropyl-N-{(1S,2S)-2-hydroxy-1-[4-(trifluoromethyl)phenyl]propyl}-6-oxo-1,6-dihydropyrimidine-4-carboxamide]
